Data from ChEMBL document CHEMBL5465560, “Selectivity Literature for EUbOPEN Chemogenomic Library” (2024).

How the values were obtained:
[1] = target: Mitogen-activated protein kinase 7 (Homo sapiens) (UniProt Q13164); assay: Selectivity interaction (KinomeScan (DiscoverX)) EUB0000699a MAPK7; details: at 10 µM
[2] = target: T1, Serine/threonine-protein kinase tousled-like 1 (Homo sapiens) (UniProt Q9UKI8); assay: Selectivity interaction (KinomeScan (DiscoverX)) EUB0000092b TLK1; details: at 10 µM
T1 sequence (whole entry): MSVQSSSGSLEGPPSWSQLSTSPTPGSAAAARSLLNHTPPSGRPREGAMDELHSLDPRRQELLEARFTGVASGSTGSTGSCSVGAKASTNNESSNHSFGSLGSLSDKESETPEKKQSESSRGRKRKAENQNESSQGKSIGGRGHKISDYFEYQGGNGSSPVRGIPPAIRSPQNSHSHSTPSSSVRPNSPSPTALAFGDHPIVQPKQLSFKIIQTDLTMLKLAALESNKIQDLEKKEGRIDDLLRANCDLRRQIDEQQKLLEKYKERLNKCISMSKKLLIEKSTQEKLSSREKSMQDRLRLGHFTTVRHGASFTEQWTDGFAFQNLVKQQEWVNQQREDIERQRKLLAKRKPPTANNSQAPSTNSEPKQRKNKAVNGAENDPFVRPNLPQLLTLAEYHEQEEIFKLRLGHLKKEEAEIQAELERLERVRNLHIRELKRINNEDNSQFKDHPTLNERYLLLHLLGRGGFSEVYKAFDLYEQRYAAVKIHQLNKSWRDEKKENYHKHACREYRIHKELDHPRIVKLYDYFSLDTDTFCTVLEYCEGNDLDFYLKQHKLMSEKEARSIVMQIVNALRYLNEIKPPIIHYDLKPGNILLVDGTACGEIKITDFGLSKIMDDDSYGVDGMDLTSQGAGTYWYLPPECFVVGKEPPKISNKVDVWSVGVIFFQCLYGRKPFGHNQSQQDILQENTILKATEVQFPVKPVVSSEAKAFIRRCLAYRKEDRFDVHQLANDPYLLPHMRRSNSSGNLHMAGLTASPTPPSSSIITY

[3] = target: T2, Discoidin domain-containing receptor 2 (Homo sapiens) (UniProt Q16832); assay: Selectivity interaction (Upstate Kinase Profiler service (Millipore)) EUB0000056c DDR2; details: at 1 µM
T2 sequence (whole entry): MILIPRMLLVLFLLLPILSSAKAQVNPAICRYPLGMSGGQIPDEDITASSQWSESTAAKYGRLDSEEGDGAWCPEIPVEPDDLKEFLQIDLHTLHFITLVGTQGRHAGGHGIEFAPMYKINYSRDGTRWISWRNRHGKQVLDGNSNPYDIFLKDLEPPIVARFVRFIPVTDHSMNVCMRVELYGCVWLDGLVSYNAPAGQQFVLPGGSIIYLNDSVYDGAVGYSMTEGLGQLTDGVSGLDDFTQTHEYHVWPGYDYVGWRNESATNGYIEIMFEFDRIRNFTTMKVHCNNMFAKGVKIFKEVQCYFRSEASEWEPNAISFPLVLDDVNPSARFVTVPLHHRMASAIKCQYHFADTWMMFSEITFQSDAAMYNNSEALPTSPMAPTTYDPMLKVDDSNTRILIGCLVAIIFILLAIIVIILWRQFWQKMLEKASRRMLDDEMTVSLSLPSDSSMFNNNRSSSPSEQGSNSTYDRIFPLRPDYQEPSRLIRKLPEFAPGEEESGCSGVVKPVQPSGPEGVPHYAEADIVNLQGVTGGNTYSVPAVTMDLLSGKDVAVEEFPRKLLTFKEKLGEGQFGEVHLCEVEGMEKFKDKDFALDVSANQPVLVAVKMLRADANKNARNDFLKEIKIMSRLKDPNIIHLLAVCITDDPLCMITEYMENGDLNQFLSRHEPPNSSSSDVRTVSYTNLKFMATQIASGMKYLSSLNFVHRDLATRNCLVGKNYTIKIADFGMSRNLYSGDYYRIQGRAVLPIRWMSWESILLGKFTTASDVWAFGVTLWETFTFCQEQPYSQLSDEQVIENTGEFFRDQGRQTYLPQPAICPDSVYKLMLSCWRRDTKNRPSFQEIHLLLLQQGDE

[4] = target: Mitogen-activated protein kinase kinase kinase 4 (Homo sapiens) (UniProt Q9Y6R4); assay: Selectivity interaction (KinomeScan (DiscoverX)) EUB0000607a MAP3K4; details: at 10 µM
[5] = target: T3, Cyclin-G-associated kinase (Homo sapiens) (UniProt O14976); assay: Selectivity interaction (KinomeScan (DiscoverX)) EUB0001619a GAK; details: at 1 µM
T3 sequence (whole entry): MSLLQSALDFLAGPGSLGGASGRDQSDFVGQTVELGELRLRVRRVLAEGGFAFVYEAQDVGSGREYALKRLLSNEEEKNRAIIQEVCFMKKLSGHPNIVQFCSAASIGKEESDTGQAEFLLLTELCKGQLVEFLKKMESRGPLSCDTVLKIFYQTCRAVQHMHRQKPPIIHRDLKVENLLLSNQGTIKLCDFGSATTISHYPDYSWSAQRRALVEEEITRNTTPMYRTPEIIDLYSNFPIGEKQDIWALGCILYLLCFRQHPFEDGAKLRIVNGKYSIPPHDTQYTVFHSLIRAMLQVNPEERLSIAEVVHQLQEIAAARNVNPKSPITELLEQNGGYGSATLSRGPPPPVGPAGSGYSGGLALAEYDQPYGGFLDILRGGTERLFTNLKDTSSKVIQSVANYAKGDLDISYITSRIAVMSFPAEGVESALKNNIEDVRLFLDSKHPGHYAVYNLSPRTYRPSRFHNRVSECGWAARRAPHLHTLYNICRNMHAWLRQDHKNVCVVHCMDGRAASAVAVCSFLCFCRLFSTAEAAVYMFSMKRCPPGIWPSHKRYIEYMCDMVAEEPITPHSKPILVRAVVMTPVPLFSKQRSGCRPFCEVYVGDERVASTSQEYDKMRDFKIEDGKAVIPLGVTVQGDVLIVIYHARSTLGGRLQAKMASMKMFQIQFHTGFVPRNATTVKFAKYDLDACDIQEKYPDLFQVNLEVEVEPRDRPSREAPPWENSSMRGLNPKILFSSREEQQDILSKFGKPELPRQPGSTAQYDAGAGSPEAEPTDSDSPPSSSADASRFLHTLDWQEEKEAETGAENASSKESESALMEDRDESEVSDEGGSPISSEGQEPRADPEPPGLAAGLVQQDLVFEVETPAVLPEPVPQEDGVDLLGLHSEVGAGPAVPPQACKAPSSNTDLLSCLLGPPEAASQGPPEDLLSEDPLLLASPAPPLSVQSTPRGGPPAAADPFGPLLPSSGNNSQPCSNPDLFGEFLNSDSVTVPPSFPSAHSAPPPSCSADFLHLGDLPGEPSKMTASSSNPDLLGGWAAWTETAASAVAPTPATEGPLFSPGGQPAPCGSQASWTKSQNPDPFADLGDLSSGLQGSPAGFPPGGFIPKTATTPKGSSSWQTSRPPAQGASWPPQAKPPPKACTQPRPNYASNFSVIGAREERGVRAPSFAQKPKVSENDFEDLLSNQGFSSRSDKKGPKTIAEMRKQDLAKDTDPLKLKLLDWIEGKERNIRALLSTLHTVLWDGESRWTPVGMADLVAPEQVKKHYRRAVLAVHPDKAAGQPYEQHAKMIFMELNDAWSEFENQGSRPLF

Mitogen-activated protein kinase kinase kinase 4 (Homo sapiens), sequence (Q9Y6R4 whole entry): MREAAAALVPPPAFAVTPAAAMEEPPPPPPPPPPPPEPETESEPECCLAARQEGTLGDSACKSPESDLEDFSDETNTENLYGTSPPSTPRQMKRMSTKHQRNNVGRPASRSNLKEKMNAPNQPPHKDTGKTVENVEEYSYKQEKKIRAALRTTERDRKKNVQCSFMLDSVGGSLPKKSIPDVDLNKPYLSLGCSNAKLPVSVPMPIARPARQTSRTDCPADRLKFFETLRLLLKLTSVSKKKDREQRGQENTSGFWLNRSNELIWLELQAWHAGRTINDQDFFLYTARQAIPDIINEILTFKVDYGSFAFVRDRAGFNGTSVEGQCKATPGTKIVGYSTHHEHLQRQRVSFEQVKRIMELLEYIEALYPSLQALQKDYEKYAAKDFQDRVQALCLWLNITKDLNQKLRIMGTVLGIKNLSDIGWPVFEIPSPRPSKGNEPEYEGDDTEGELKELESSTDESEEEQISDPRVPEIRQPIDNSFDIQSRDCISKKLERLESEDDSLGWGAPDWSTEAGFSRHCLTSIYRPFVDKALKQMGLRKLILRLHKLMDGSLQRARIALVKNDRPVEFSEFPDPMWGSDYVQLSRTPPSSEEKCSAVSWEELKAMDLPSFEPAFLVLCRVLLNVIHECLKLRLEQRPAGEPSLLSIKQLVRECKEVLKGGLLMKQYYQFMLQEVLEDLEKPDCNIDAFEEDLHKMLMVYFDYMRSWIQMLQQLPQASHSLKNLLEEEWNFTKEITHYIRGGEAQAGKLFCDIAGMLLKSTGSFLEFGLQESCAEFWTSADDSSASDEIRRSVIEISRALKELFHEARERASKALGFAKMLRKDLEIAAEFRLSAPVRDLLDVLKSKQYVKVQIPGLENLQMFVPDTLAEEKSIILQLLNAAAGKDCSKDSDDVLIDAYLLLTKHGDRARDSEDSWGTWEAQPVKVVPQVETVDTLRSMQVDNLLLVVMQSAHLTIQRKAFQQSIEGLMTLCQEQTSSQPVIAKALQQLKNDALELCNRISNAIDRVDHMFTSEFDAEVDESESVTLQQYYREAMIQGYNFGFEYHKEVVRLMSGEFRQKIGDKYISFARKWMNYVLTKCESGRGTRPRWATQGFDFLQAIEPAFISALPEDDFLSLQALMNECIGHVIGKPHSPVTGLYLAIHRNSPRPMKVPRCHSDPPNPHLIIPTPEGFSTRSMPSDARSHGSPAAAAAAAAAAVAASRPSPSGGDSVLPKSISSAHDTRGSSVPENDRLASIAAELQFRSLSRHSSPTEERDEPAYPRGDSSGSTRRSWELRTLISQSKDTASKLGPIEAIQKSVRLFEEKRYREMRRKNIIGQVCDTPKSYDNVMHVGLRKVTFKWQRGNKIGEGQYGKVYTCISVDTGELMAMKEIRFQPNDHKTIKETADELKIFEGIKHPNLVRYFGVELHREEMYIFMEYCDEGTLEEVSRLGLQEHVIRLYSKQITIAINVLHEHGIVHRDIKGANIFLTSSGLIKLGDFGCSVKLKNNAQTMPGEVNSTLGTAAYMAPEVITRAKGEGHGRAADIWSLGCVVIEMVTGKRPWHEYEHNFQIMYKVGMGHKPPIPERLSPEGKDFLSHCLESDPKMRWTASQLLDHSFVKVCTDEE
Mitogen-activated protein kinase 7 (Homo sapiens), sequence (Q13164 2-816 limits assumed): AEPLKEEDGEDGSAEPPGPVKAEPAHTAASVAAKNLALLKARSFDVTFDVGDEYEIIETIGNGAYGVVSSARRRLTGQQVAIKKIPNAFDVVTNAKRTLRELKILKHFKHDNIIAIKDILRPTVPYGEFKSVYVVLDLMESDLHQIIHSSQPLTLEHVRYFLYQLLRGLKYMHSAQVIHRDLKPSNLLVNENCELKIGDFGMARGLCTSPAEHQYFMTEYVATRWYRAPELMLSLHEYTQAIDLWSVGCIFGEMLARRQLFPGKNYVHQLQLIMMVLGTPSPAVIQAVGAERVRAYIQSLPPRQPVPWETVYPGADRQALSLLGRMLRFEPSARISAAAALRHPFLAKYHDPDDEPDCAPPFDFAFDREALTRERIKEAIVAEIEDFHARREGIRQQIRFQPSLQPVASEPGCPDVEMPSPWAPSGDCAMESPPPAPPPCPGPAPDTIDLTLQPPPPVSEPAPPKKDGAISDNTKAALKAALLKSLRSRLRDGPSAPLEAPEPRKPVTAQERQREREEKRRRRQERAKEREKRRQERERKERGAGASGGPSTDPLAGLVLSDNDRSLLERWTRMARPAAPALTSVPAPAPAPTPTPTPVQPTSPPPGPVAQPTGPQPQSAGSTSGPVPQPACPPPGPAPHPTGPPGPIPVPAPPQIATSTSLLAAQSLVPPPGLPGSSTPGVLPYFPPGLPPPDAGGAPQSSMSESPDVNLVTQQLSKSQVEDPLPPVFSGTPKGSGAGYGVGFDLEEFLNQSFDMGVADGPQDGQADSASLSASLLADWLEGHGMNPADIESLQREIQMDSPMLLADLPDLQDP

CCN(CC)CCCCNc1ncc2cc(-c3cc(OC)cc(OC)c3)c(NC(=O)NC(C)(C)C)nc2n1
% of control [1]: 36%

CCC(=O)N1CCN(c2ccc(-n3c(=O)ccc4cnc5ccc(-c6cnc7ccccc7c6)cc5c43)cc2C(F)(F)F)CC1
% of control [2]: 100%

Cc1ccc(-c2ccc3c(ccc4sc5c(c43)NC[C@@H](C)NC5=O)n2)cn1
% of inhibition [3]: -6%

CNC(=O)Nc1ccc(-c2nc(N3CC4CCC(C3)O4)c3cnn(C4CCC5(CC4)OCCO5)c3n2)cc1
% of control [4]: 86%

N#Cc1cccc(-c2c[nH]c3ncnc(N4CCOCC4)c23)c1
% of control [5]: 100%
